# Measured values: patent US6762193B1, “Method of treating hair loss” (priority 2000, dated 2004)
# How the values were obtained:
# Format in all cases: in vivo, human
# androgenetic alopecia = assay: Investigative study of zafirlukast in androgenetic alopecia / hereditary balding (hair loss and regrowth)
# Experimental: (§1) During the summer of 2000 an investigative study was initiated to determine the efficacy of zafirlukast in the treatment of androgenetic alopecia A middle aged blond haired person whom was actively undergoing genetically influenced alopecia was recruited and voluntarily enlisted into the study under informed consent. […] Just two months earlier serum luteinizing hormone, total testosterone, androstenedione and dehydroepiandrosterone sulfate levels were determined to be normal. Having considered that dihydrotestosterone levels may have been suppressed to a low normal range, as pre treatment dihydrotestosterone serum determination had not been performed, the dose of zafirlukast was increased to 40 mg taken by mouth twice daily. Continuing this dose for a one month period of time, serum dihydrotestosterone levels were reanalized and determined to be 21 NG/DL (normal 25 to 75 NG/DL). […] The patient was then withdrawn, from zafirlukast therapy and there were no specific complications or side effects during a one month abstinence from zafirlukast and serum dihydrotestosterone levels were redetermined and found to be 15 NG/DL (normal 25 to 75 NG/DL). This patient was then given the option to continue treatment with zafirlukast at a dose of 40 mg taken by mouth twice daily for the treatment of androgenic alopecia and decided to do so as they had witnessed the continued regrowth of hair and remission of hair loss while taking zafirlukast. […] The results are as follows:
# (§2) In person two undergoing treatment with zafirlukast at 40 mg po bid for hereditary balding, their pretreatment dihydrotestosterone level was 5 NG/DL (normal 5 to 30 NG/DL); after 4 weeks of continuous treatment their dihydrotestosterone serum concentration was 4 NG/DL (normal 5 to 30 NG/DL) and at 6 weeks of continued treatment their serum dihydrotestosterone level was determined to be less than 3 NG/DL.
# [1] = test system: Grade IV cystic acne vulgaris; assay: Zafirlukast treatment of a patient with Grade IV cystic acne vulgaris; details: person one, 40 mg po bid
# dihydrotestosterone = assay: Serum dihydrotestosterone level in patients treated with zafirlukast
# Experimental: as §1
# In person one undergoing treatment for Grade IV cystic acne vulgaris with zafirlukast at 40 mg po bid (by mouth twice a day) for 4 weeks, preceded by 2 weeks of zafirlukast treatment at 30 mg bid, their serum dihydrotestosterone level was determined to be 16 NG/DL (normal was 25 to 75 NG/DL).
# as §2
# [2] = test system: acne vulgaris/acne rosacea; assay: Inception cohort investigational study of zafirlukast in acne vulgaris/acne rosacea patients
# Excerpt: This study was designed to evaluate the effectiveness in treating acne vulgaris with the drug zafirlukast After having established a mechanism by which zafirlukast would be effective in the treatment of acne vulgaris, and subsequently treating a single case of acne conglobata successfully during the summer and fall of 1999, this study was purposely designed to evaluate the treatment of acne vulgaris with the drug zafirlukast
# Objective: To determine if the anti-leukotriene zafirlukast is effective in the treatment of acne vulgaris/acne rosacea.
# Design: Inception cohort investigational study conducted from October 1999 to January 2000.
# Setting: Rural Family Practice clinic in Waldheim, La.
# Participants: A total of 7 male and 8 female patients aged 12-45 years diagnosed with mild, moderate, or severe acne vulgaris including one case of acne conglobata and 2 cases of acne rosacea were given 20 mg. of zafirlukast (ACCOLATE® brand from AstraZeneca) twice daily from week 1 through week 4. The dose was increased to 30 mg. twice daily at week 4 and continued through week 8. At week 8 the dose of zafirlukast was decreased to 20 mg twice daily and continued until the termination of the study at 10 weeks.
# Between the months of October and November 1999 both adolescent and adult patients were recruited consecutively at a family practice clinic in rural Louisiana to participate in an investigational study to determine the effectiveness of zafirlukast in the treatment of acne vulgarism Those patients who provided informed consent and who have reported a prior medical diagnosis of acne vulgaris were enlisted into the study. This cohort was composed of a total of seven male and eight female Caucasian patients, age twelve to forty five years, diagnosed with mild, moderate or severe acne vulgaris.
# Pre-study recruitment assessment data was consistent with the following: one of fifteen patients was diagnosed with acne conglobata; two of fifteen patients were […] with acne rosacea, one of which had acne scars who had previously been treated with oral isotretinoin for nodular-cystic acne; eleven of fifteen patients with moderate to severe inflammatory/nodular-cystic acne; all patients had self medicated with topical comedolytic over-the-counter agents; three of fifteen patients had never been treated with prescription (topical or systemic) medications; twelve of fifteen patients were prescribed a range of three to five medical prescriptions (both topical and systemic) with varying degrees of success and failure; three of fifteen patients had previously taken oral isotretinoin; two of fifteen patients had been offered oral isotretinoin but refused that treatment.
# Inclusion criteria for study enlistment encompassed any patient who was requesting medical treatment of a chief complaint of acne dermatitis, coincident with a clinical diagnosis of acne vulgaris confirmed by physical examination. These patients voluntarily agreed to be treated with zafirlukast knowing that alternative treatment (both topical and systemic) were available. At the initial visit all patients were instructed on the use of zafirlukast This was to be administered by mouth twice daily. The potential side effects, potential adverse reactions, and other risks were all explained. Patients all agreed to avoid any over-the-counter acne preparations and were to use any household soft-soap product to wash the facial skin twice daily. Zafirlukast was to be administered at the dose of 20 mg. twice daily from week one through week four and then to be increased to 30 mg. twice daily at week four and continued through week eight. At week eight the dose of zafirlukast was to be decreased to 20 mg. taken twice daily and continued until the completion of the study at ten weeks.
# Main Outcome Measures: Subjective and objective medical examination and qualitative photographic analysis were employed at each patients initial visit to establish baseline. […]
# [3] = Serum ancillary hormone and liver function studies during zafirlukast treatment
# Experimental: During the summer of 2000 an investigative study was initiated to determine the efficacy of zafirlukast in the treatment of androgenetic alopecia A middle aged blond haired person whom was actively undergoing genetically influenced alopecia was recruited and voluntarily enlisted into the study under informed consent. […] Just two months earlier serum luteinizing hormone, total testosterone, androstenedione and dehydroepiandrosterone sulfate levels were determined to be normal. Having considered that dihydrotestosterone levels may have been suppressed to a low normal range, as pre treatment dihydrotestosterone serum determination had not been performed, the dose of zafirlukast was increased to 40 mg taken by mouth twice daily. Continuing this dose for a one month period of time, serum dihydrotestosterone levels were reanalized and determined to be 21 NG/DL (normal 25 to 75 NG/DL). […] The patient was then withdrawn, from zafirlukast therapy and there were no specific complications or side effects during a one month abstinence from zafirlukast and serum dihydrotestosterone levels were redetermined and found to be 15 NG/DL (normal 25 to 75 NG/DL). This patient was then given the option to continue treatment with zafirlukast at a dose of 40 mg taken by mouth twice daily for the treatment of androgenic alopecia and decided to do so as they had witnessed the continued regrowth of hair and remission of hair loss while taking zafirlukast. […]
# In this study a dose and time dependent effect has been identified with the treatment of both acne vulgaris and common baldness in genetically susceptible men and women without physical or psychological compromise, or forfeit of quality of life. […] Serum liver function studies monitored during this study remained in the normal range of value except in one patient with known Hepatitis C and abnormal pretreatment liver function studies; however, in all patients including the one patient with Hepatitis C, serum liver function studies improved with zafirlukast treatment possibly indicating a role in treating liver diseases in the future.
compound,measurement,setting,value
COc1cc(C(=O)NS(=O)(=O)c2ccccc2C)ccc1Cc1cn(C)c2ccc(NC(=O)OC3CCCC3)cc12 [zafirlukast],side effects or adversities,"androgenetic alopecia; person one (acne) and person two (balding), 40 mg po bid",never witnessing any side effects or adversities
same,regrowth of frontal hair,"androgenetic alopecia; person two, 40 mg po bid",regrowth of frontal hair
same,regrowth of hair,"androgenetic alopecia; person, 20 mg twice daily, by the fourth month",regrowth of hair in the area of temporat and vertex balding was observed
same,occurrence of hair loss,"androgenetic alopecia; person, 20 mg twice daily, within the first 6 weeks",less occurrence of hair loss
same,side effects,"androgenetic alopecia; person, 20-40 mg twice daily",never any side effects observed
same,acne lesion remission and clearing,[1],significant improvement
same,serum dihydrotestosterone level,"dihydrotestosterone; person one, 40 mg po bid for 4 weeks preceded by 2 weeks at 30 mg bid, normal 25 to 75",16 ng/dL
same,dihydrotestosterone serum concentration,"dihydrotestosterone; person two, 40 mg po bid, after 4 weeks, pretreatment 5, normal 5 to 30",4 ng/dL
same,serum dihydrotestosterone level,"dihydrotestosterone; person two, 40 mg po bid, at 6 weeks",less than 3 NG/DL
same,serum dihydrotestosterone level,"dihydrotestosterone; person, 20 mg twice daily, completion of fourth month, normal 25 to 75",32 ng/dL
same,serum dihydrotestosterone level,"dihydrotestosterone; person, 40 mg twice daily for one month, normal 25 to 75",21 ng/dL
same,serum dihydrotestosterone level,"dihydrotestosterone; person, after one month abstinence from zafirlukast, normal 25 to 75",15 ng/dL
same,added benefit of higher dose,[2]; 30 mg twice daily from week 4 thru week 8 versus 20 mg twice daily,no added benefit
same,acne remission during the study,"[2]; 15 patients, 20-30 mg twice daily oral, 10 weeks",all participants attained periods of acne remission
same,time to subjective and objective clinical improvement,"[2]; after initiating zafirlukast therapy, routinely, observed as early as two weeks",3-4 weeks
same,time to acne reoccurrence in consistently non-compliant patients,[2]; after more than 2-3 doses missed,2 to 3 days
same,reduction of perilesional erythema,[2]; by week eight,80-90%
same,reduction of perilesional erythema,[2]; by week four,40-50%
same,resolution of perilesional erythema,[2]; by week two,10-15%
same,reoccurrence of acne form lesions after discontinuation,[2]; discontinuation of therapy over a 5-7 day period,equal to baseline levels
same,remission in the one patient compliant throughout the entire study,[2]; fully compliant patient,complete remission
same,side effects,"[2]; one participant with acne rosacea, taken on an empty stomach, only participant with side effects, none at 10 mg twice daily",asthenia
same,serum liver function studies,[3]; all patients including one with Hepatitis C,improved
same,"serum luteinizing hormone, total testosterone, androstenedione and dehydroepiandrosterone sulfate levels","[3]; person, 20 mg twice daily, about second month",normal
same,"serum 3-alpha androstanediol glucuronide, estrone, androstenedione, total testosterone, prostate specific antigen, and progesterone levels","[3]; person, 40 mg twice daily for one month",within normal limits
